Read-outs that look alike come from different tables or passages of the source.
Assays:
Test in all cases: biochemical
Assay type in all cases: binding
[1] = molecular target: panel of 468 diverse kinases (Homo sapiens, UniProt O14757); conditions: CHEK1; 1000 nM; read-out: Percent Control
[2] = molecular target: panel of 468 diverse kinases (Homo sapiens, UniProt Q9UHD2); conditions: TBK1; 1000 nM; read-out: Percent Control
[3] = molecular target: panel of 468 diverse kinases (Homo sapiens, UniProt Q8TDR2); conditions: STK35; 1000 nM; read-out: Percent Control
[4] = molecular target: panel of 468 diverse kinases (Homo sapiens, UniProt Q8TDX7); conditions: NEK7; 1000 nM; read-out: Percent Control
[5] = molecular target: panel of 468 diverse kinases (Homo sapiens, UniProt Q9H422); conditions: HIPK3; 1000 nM; read-out: Percent Control
[6] = molecular target: panel of 468 diverse kinases (Homo sapiens, UniProt Q9Y616); conditions: IRAK3; 1000 nM; read-out: Percent Control
[7] = molecular target: panel of 468 diverse kinases (Homo sapiens, UniProt O75747); conditions: PIK3C2G; 1000 nM; read-out: Percent Control
[8] = molecular target: panel of 468 diverse kinases (Homo sapiens, UniProt Q13882); conditions: BRK; 1000 nM; read-out: Percent Control
[9] = molecular target: panel of 468 diverse kinases (Homo sapiens, UniProt O94804); conditions: LOK; 1000 nM; read-out: Percent Control
[10] = molecular target: panel of 468 diverse kinases (Homo sapiens, UniProt Q9UQB9); conditions: AURKC; 1000 nM; read-out: Percent Control
[11] = molecular target: panel of 468 diverse kinases (Homo sapiens, UniProt P27037); conditions: ACVR2A; 1000 nM; read-out: Percent Control
[12] = molecular target: panel of 468 diverse kinases (Homo sapiens, UniProt Q9Y2I7); conditions: PIKFYVE; 1000 nM; read-out: Percent Control
[13] = molecular target: panel of 468 diverse kinases (Homo sapiens, UniProt O15197); conditions: EPHB6; 1000 nM; read-out: Percent Control
[14] = molecular target: panel of 468 diverse kinases (Homo sapiens, UniProt Q9H3Y6); conditions: SRMS; 1000 nM; read-out: Percent Control
[15] = molecular target: panel of 468 diverse kinases (Homo sapiens, UniProt Q9HC98); conditions: NEK6; 1000 nM; read-out: Percent Control
[16] = molecular target: panel of 468 diverse kinases (Homo sapiens, UniProt Q5S007); conditions: LRRK2; 1000 nM; read-out: Percent Control
[17] = molecular target: panel of 468 diverse kinases (Homo sapiens, UniProt P00519, F317L); conditions: 1000 nM, read-out: Percent Control
[18] = molecular target: panel of 468 diverse kinases (Homo sapiens, UniProt Q9H4A3); conditions: WNK1; 1000 nM; read-out: Percent Control
[19] = molecular target: panel of 468 diverse kinases (Homo sapiens, UniProt Q9C098); conditions: DCAMKL3; 1000 nM; read-out: Percent Control
[20] = molecular target: panel of 468 diverse kinases (Homo sapiens, UniProt Q14289); conditions: PYK2; 1000 nM; read-out: Percent Control
[21] = molecular target: panel of 468 diverse kinases (Homo sapiens, UniProt P51813); conditions: BMX; 1000 nM; read-out: Percent Control
[22] = molecular target: panel of 468 diverse kinases (Homo sapiens, UniProt Q9H4B4); conditions: PLK3; 1000 nM; read-out: Percent Control
[23] = molecular target: panel of 468 diverse kinases (Homo sapiens, UniProt Q05397); conditions: FAK; 1000 nM; read-out: Percent Control
[24] = molecular target: panel of 468 diverse kinases (Plasmodium falciparum, UniProt P61075); conditions: read-out: Percent Control
[25] = molecular target: panel of 468 diverse kinases (Homo sapiens, UniProt Q00537); conditions: PCTK2; 1000 nM; read-out: Percent Control
[26] = molecular target: panel of 468 diverse kinases (Homo sapiens, UniProt P37173); conditions: TGFBR2; 1000 nM; read-out: Percent Control
[27] = molecular target: panel of 468 diverse kinases (Homo sapiens, UniProt P10721, T670I/V559D); conditions: KIT(V559D,T670I); 1000 nM; read-out: Percent Control
[28] = molecular target: panel of 468 diverse kinases (Homo sapiens, UniProt Q9Y2U5); conditions: MAP3K2; 1000 nM; read-out: Percent Control
[29] = molecular target: panel of 468 diverse kinases (Homo sapiens, UniProt P30530); conditions: AXL; 1000 nM; read-out: Percent Control
[30] = molecular target: panel of 468 diverse kinases (Homo sapiens, UniProt Q32MK0); conditions: MLCK; 1000 nM; read-out: Percent Control
[31] = molecular target: panel of 468 diverse kinases (Homo sapiens, UniProt P53355); conditions: DAPK1; 1000 nM; read-out: Percent Control

panel of 468 diverse kinases (Homo sapiens, UniProt Q9Y2I7), sequence (Q9Y2I7 2-2098 limits assumed): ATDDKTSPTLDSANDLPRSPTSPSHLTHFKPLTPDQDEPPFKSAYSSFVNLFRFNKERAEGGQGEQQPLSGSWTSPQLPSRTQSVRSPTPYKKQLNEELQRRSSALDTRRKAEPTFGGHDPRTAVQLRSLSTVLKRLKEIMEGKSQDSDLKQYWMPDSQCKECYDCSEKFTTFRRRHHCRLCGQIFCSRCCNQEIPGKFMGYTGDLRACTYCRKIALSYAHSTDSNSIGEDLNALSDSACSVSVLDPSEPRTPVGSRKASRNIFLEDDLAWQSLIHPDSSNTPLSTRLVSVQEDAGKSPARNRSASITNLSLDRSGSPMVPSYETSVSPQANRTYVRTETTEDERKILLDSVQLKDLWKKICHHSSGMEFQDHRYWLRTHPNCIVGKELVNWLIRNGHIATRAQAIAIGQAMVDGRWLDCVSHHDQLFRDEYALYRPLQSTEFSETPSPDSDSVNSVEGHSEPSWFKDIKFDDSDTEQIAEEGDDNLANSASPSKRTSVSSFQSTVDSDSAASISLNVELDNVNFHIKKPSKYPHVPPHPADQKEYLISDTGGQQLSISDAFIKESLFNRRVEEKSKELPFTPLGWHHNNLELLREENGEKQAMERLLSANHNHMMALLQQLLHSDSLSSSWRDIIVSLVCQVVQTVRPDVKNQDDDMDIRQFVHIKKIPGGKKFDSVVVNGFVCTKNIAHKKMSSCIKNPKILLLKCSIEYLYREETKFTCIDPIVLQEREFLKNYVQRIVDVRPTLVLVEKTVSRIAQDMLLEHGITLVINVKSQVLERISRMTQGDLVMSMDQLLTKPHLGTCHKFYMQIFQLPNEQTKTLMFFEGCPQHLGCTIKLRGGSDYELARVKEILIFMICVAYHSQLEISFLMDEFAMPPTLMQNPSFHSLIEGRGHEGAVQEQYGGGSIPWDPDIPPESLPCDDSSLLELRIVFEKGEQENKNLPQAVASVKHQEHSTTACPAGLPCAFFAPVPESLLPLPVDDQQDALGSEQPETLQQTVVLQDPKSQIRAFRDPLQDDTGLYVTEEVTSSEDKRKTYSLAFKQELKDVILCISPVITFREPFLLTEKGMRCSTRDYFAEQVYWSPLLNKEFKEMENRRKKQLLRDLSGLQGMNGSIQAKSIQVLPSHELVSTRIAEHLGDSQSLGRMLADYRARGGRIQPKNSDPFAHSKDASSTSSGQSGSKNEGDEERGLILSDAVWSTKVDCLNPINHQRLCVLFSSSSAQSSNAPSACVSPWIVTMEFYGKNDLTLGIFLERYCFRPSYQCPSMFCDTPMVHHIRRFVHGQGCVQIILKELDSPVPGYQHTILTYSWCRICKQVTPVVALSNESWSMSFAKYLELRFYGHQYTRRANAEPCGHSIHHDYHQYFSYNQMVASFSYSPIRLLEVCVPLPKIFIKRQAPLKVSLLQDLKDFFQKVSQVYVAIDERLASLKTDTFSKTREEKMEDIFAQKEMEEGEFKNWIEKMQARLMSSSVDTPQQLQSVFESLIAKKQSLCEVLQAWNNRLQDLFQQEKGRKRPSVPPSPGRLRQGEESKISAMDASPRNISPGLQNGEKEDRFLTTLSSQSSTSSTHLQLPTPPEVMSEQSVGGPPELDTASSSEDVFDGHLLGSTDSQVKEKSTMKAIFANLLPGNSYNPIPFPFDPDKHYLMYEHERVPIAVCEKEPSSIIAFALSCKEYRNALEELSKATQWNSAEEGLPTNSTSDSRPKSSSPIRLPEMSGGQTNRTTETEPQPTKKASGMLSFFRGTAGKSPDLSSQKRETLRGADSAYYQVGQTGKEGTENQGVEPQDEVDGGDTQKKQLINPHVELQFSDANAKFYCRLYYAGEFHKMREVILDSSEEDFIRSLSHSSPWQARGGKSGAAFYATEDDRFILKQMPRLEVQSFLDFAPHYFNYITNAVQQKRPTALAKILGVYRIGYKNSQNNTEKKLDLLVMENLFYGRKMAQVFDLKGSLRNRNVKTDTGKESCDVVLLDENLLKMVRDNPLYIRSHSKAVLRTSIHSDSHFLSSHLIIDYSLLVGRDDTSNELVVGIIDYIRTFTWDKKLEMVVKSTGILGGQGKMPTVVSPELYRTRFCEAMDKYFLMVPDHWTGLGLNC
panel of 468 diverse kinases (Homo sapiens, UniProt P30530), sequence (P30530 26-894 limits assumed): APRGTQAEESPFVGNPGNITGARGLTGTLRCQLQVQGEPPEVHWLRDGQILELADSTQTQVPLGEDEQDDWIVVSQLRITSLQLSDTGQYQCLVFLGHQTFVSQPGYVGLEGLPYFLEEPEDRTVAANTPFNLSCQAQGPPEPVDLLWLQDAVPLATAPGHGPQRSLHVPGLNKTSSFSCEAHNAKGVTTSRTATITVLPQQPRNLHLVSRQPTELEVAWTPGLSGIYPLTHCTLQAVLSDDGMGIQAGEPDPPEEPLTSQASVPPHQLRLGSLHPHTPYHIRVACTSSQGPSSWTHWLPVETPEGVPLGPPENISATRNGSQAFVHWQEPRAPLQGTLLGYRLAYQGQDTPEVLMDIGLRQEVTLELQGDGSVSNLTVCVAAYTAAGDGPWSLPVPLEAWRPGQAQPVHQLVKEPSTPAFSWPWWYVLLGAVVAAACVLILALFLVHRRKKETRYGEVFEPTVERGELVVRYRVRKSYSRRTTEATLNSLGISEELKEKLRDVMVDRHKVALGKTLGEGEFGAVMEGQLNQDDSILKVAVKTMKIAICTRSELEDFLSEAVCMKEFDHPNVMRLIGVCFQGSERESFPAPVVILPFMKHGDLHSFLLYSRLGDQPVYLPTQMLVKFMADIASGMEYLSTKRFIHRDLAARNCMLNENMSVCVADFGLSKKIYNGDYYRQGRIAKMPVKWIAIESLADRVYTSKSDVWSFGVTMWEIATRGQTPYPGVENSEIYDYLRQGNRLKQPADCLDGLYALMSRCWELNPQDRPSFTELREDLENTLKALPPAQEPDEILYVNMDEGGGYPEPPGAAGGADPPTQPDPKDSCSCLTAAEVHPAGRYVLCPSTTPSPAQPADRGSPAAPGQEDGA
panel of 468 diverse kinases (Homo sapiens, UniProt O15197), sequence (O15197 32-1021 limits assumed): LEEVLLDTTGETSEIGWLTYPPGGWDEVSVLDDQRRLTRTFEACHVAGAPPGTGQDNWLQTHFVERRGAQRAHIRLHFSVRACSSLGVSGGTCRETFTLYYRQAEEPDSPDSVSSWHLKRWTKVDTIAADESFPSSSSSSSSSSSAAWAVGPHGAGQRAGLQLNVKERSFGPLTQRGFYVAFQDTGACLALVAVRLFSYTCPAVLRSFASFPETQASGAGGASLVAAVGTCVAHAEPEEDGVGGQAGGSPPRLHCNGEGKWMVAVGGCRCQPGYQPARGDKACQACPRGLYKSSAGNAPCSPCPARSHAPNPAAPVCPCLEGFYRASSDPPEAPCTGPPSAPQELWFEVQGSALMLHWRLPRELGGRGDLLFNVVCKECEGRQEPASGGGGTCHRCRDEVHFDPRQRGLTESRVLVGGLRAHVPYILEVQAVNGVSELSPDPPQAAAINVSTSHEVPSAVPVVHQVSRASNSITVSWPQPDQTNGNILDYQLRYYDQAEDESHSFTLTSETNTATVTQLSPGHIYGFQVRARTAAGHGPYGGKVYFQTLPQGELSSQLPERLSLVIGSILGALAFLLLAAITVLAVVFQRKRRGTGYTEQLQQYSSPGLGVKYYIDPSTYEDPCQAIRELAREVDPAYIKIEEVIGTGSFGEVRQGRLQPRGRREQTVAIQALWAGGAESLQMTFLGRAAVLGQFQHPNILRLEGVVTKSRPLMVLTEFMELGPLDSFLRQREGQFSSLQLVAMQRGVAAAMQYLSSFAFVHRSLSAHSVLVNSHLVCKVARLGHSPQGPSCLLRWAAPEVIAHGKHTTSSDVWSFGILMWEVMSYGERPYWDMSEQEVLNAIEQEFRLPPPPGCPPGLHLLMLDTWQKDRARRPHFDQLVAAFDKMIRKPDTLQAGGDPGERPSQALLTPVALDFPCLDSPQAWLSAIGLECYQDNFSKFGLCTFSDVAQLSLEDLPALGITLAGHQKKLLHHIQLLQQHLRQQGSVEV
panel of 468 diverse kinases (Homo sapiens, UniProt P27037), sequence (P27037 20-513 limits assumed): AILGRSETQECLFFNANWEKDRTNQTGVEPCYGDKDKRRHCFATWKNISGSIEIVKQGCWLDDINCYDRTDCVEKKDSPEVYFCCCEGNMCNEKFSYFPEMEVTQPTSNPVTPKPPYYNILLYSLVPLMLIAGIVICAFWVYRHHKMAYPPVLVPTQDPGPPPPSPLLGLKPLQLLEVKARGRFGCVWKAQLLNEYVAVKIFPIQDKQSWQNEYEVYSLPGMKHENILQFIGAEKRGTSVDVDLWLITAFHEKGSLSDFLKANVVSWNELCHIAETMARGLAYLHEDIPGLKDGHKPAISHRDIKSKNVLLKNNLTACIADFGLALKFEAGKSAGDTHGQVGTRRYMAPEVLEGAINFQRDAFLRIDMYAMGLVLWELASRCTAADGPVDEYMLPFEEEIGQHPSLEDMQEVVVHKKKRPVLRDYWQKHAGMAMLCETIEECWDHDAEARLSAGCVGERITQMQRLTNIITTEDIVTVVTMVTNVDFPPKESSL
panel of 468 diverse kinases (Homo sapiens, UniProt P37173), sequence (P37173 23-567 limits assumed): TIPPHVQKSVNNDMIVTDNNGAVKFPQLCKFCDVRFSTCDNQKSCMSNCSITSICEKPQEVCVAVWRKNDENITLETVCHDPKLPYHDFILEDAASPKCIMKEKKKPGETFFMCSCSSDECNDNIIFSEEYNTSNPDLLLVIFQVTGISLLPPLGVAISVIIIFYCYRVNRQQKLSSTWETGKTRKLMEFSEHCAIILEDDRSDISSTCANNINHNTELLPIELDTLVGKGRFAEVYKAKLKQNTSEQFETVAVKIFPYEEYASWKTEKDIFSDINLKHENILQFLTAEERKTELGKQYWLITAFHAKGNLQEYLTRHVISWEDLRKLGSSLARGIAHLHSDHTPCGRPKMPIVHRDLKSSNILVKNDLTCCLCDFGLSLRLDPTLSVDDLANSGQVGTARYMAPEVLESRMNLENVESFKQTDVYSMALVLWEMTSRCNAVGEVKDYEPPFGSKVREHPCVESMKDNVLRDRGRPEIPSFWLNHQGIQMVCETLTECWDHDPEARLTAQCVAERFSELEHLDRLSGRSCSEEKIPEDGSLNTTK

Work on `COc1cc2nc(NC3CC3)nc(NC3CCN(C(C)C)CC3)c2cc1OC` [Formula IV] yielded a remaining activity at 1 µM [1] of 93%, a remaining activity at 1 µM [2] of 98% and a remaining activity at 1 µM [3] of 94%. It also gave a remaining activity at 1 µM [4] of 89%, a remaining activity at 1 µM [5] of 61% and a remaining activity at 1 µM [6] of 99%. The remaining activity at 1 µM [7] was 100%, the remaining activity at 1 µM [8] was 100% and the remaining activity at 1 µM [9] was 90%. The remaining activity at 1 µM [10] was 100%, the remaining activity at 1 µM [11] was 100% and the remaining activity at 1 µM [12] was 96%. The remaining activity at 1 µM [13] was 81%, the remaining activity at 1 µM [14] was 89% and the remaining activity at 1 µM [15] was 83%. It also gave a remaining activity at 1 µM [16] of 71%, a remaining activity at 1 µM ([17]; ABL1 (F317L)-nonpho sphorylated) of 82% and a remaining activity at 1 µM ([17]; ABL1(F317L)-phosphorylated) of 40%. The remaining activity at 1 µM [18] was 59%, the remaining activity at 1 µM [19] was 92% and the remaining activity at 1 µM [20] was 93%. The remaining activity at 1 µM [21] was 100%, the remaining activity at 1 µM [22] was 68% and the remaining activity at 1 µM [23] was 88%. It also gave a remaining activity at 1 µM [24] of 48%, a remaining activity at 1 µM [25] of 94% and a remaining activity at 1 µM [26] of 94%. It also gave a remaining activity at 1 µM [27] of 86%, a remaining activity at 1 µM [28] of 65% and a remaining activity at 1 µM [29] of 94%. The remaining activity at 1 µM [30] was 91% and the remaining activity at 1 µM [31] was 99%.
